Patent US10871487B2, “FRET-based glucose-detection molecules” (priority 2016, dated 2020)

Assays:
[1] = target: T1, FRET-based glucose-detection molecule D241, glucose-binding region derived from E. coli mg1B (galactose binding protein), 16 = Q (Escherichia coli, UniProt P0AEE5, F39Q); experiment: Kd of residue 16 variant at room temperature (D241)
T1 construct: made in E. coli, purified
From the text: (§1) Reference is also made to FIG. 2, which is a graph that illustrates, in a generalized manner, FRET behavior of molecule 20 (and of the molecules that it represents), in accordance with some applications of the invention. Three important features of molecules suitable for FRET-based glucose detection are: • (1) High contrast. That is, a large difference between the FRET:F ratio in the disassociated state and the FRET:F ratio in the associated state (referred to herein as “delta ratio” (“dR”)). In FIG. 2, this is represented as the difference between the highest FRET:F ratio and the lowest FRET:F ratio on the curve. • (2) High sensitivity at physiologically-relevant glucose concentrations when at physiologically-relevant temperatures. […]
(§2) The measurements were performed on proteins that were extracted from E. coli (in which they were produced) and purified in 50 mM Tris (pH 7.6, 1 mM CaCl_2, 100 mM NaCl_2). Measurements were performed using an Infinite (R) 200 plate reader or on a fluoroscopic microscope. FRET-based emission was measured by applying excitation at 475 nm and detecting emission at 640-800 nm. Direct fluorescence of the acceptor fluorophore was measured by applying excitation at 575 nm and detecting emission at 640-800 nm. Curves were generated from the measured points (typically 10) by a non-linear interpolation, and Kd and dR were extracted. […]

[2] = target: T2, FRET-based glucose-detection molecule D263, glucose-binding region derived from E. coli mg1B (galactose binding protein), 16 = V (Escherichia coli, UniProt P0AEE5, F39V); experiment: Kd of residue 16 variant at room temperature (D263)
T2 construct: made in E. coli, purified
T2 sequence (P0AEE5 24-332 F39V limits assumed): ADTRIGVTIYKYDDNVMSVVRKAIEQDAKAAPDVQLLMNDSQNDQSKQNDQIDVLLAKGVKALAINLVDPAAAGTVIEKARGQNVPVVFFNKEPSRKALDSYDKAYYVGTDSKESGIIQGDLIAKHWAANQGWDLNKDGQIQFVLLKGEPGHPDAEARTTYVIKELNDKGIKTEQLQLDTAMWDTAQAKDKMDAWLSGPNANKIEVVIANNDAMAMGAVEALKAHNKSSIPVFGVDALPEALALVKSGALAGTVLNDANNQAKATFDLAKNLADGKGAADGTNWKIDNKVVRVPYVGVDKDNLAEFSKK
From the text: as §1, §2

[3] = target: T3, FRET-based glucose-detection molecule D198, glucose-binding region derived from E. coli mg1B (galactose binding protein), 16 = A (Escherichia coli, UniProt P0AEE5, F39A); experiment: Kd of residue 16 variant at room temperature (D198)
T3 construct: made in E. coli, purified
T3 sequence (P0AEE5 24-332 F39A limits assumed): as the sequence (P0AEE5 24-332 F39V limits assumed) above, with V16A counted along it
From the text: as §1, §2

[4] = target: T4, FRET-based glucose-detection molecule D274, SEQ ID No. 1, glucose-binding region derived from E. coli mg1B (galactose binding protein), residue 16 = Q (Escherichia coli, UniProt P0AEE5, DELINS298-299[…]/F39Q); experiment: FRET:F ratio at different glucose concentrations, Kd extracted from curve (D274); details: FIG. 5B
T4 construct: red acceptor fluorophore at N-terminus; FRET sensor D274; made in E. coli, purified
T4 sequence (P0AEE5 other isoform, or with tags, fused parts or gaps with the stated changes): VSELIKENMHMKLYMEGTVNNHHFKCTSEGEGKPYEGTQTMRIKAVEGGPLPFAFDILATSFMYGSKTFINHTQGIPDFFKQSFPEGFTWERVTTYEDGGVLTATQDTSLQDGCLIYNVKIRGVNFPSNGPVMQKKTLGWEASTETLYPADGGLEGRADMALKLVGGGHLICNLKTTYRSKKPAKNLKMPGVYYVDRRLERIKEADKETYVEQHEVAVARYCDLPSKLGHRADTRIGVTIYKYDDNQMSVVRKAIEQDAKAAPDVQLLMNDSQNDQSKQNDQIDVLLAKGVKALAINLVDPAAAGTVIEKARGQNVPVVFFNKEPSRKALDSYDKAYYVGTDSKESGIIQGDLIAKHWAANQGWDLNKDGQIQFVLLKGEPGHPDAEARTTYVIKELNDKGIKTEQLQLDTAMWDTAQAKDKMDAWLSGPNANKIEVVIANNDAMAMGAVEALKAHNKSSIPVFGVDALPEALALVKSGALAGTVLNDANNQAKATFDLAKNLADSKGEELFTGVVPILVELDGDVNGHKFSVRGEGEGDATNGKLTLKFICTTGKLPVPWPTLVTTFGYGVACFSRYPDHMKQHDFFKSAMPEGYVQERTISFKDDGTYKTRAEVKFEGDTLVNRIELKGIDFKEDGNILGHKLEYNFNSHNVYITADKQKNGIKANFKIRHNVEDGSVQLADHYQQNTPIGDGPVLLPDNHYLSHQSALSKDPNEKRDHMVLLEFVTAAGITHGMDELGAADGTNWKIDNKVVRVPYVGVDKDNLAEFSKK
From the text: (§3) Reference is also made to FIG. 2, which is a graph that illustrates, in a generalized manner, FRET behavior of molecule 20 (and of the molecules that it represents), in accordance with some applications of the invention. Three important features of molecules suitable for FRET-based glucose detection are: • (1) High contrast. That is, a large difference between the FRET:F ratio in the disassociated state and the FRET:F ratio in the associated state (referred to herein as “delta ratio” (“dR”)). […]
(§4) Reference is now made to FIG. 4, which is a set of graphs which show, for some of the molecules described hereinabove, the FRET:F ratio (y axis) at different glucose concentrations, measured at 35 degrees C.
as §2

[5] = target: T5, FRET-based glucose-detection molecule D277, SEQ ID No. 2, glucose-binding region derived from E. coli mg1B (galactose binding protein), residue 16 = Q (Escherichia coli, UniProt P0AEE5, DELINS298-299[…]/F39Q); experiment: FRET:F ratio at different glucose concentrations, Kd extracted from curve (D277); details: FIG. 5B
T5 construct: red acceptor fluorophore at N-terminus with linker; FRET sensor D277; made in E. coli, purified
T5 sequence (P0AEE5 other isoform, or with tags, fused parts or gaps with the stated changes): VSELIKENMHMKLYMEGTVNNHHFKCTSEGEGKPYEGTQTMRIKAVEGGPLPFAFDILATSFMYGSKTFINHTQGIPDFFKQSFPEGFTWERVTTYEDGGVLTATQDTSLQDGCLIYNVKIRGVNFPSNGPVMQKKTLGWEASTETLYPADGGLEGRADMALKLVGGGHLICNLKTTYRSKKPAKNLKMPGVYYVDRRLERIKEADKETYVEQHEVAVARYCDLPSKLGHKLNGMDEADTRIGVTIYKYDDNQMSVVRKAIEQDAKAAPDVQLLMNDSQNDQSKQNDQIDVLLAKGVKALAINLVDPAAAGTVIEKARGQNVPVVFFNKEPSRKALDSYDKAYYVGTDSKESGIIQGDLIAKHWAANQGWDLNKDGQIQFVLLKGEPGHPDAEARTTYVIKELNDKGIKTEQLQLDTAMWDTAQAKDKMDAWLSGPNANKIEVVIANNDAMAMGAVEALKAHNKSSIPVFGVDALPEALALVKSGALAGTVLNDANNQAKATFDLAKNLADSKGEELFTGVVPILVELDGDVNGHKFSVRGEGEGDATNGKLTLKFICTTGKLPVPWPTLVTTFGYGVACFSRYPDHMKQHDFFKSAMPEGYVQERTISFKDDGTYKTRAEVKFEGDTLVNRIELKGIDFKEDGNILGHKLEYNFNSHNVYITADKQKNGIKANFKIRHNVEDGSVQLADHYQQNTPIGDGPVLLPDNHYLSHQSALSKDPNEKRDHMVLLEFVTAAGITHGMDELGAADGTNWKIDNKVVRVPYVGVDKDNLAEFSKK
From the text: as §3, §4, §2

[6] = target: T6, FRET-based glucose-detection molecule D267, glucose-binding region derived from E. coli mg1B (galactose binding protein), 16 = N (Escherichia coli, UniProt P0AEE5, F39N); experiment: Kd of residue 16 variant at room temperature (D267)
T6 construct: made in E. coli, purified
T6 sequence (P0AEE5 24-332 F39N limits assumed): as the sequence (P0AEE5 24-332 F39V limits assumed) above, with V16N counted along it
From the text: as §1, §2

[7] = target: T7, FRET-based glucose-detection molecule D279, SEQ ID No. 4, glucose-binding region derived from E. coli mg1B (galactose binding protein), residue 16 = Q (Escherichia coli, UniProt P0AEE5, DELINS299-299[…]/F39Q); experiment: FRET:F ratio at different glucose concentrations, Kd extracted from curve (D279); details: FIG. 5B
T7 construct: red acceptor fluorophore at N-terminus; FRET sensor D279; made in E. coli, purified
T7 sequence (P0AEE5 other isoform, or with tags, fused parts or gaps with the stated changes): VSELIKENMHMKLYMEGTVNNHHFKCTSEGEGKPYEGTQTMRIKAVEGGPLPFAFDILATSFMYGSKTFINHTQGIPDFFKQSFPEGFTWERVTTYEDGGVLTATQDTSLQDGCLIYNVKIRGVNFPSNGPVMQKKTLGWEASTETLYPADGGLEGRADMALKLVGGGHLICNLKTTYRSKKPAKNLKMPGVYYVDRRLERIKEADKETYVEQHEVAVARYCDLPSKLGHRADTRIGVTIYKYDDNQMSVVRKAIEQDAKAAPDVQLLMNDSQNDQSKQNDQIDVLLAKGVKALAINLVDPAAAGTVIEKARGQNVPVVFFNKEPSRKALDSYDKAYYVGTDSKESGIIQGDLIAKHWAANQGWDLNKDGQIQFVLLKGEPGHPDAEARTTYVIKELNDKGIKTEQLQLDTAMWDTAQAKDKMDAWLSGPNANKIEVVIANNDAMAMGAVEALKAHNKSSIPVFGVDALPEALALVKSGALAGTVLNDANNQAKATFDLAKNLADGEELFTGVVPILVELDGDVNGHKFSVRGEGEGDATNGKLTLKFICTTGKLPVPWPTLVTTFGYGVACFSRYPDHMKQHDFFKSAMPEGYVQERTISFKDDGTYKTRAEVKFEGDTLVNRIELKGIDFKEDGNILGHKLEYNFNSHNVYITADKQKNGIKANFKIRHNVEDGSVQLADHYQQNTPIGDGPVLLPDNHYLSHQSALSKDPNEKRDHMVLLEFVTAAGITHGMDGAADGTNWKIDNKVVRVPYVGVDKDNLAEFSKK
From the text: as §3, §4, §2

[8] = target: T8, FRET-based glucose-detection molecule D278, SEQ ID No. 3, glucose-binding region derived from E. coli mg1B (galactose binding protein), residue 16 = Q (Escherichia coli, UniProt P0AEE5, DELINS298-299[…]/F39Q); experiment: FRET:F ratio at different glucose concentrations, Kd extracted from curve (D278); details: FIG. 5B
T8 construct: red acceptor fluorophore at N-terminus with linker; FRET sensor D278; made in E. coli, purified
T8 sequence (P0AEE5 other isoform, or with tags, fused parts or gaps with the stated changes): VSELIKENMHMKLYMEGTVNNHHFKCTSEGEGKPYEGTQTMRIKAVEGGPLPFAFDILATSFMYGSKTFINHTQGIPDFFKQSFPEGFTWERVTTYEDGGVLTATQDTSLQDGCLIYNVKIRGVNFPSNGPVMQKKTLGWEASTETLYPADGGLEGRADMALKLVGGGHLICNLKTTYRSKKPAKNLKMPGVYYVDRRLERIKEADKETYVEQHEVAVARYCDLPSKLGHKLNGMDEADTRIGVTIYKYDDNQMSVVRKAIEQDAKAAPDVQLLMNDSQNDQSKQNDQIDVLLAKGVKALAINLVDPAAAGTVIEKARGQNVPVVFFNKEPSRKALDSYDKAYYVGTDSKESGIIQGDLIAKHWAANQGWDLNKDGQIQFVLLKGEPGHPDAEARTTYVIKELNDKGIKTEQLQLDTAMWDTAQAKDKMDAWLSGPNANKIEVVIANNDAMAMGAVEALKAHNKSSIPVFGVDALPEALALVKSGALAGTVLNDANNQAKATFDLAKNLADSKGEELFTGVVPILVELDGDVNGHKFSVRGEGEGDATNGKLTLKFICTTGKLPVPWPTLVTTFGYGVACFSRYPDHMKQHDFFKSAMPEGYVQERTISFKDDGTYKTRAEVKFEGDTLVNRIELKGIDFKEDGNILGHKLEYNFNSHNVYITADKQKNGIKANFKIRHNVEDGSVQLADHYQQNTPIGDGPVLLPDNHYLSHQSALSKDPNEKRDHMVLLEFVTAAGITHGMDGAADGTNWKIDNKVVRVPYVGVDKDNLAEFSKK
From the text: as §3, §4, §2

T1 sequence (P0AEE5 24-332 F39Q limits assumed): as the sequence (P0AEE5 24-332 F39V limits assumed) above, with V16Q counted along it

Work on `OC[C@H]1OC(O)[C@H](O)[C@@H](O)[C@@H]1O` (some centres unmarked) [glucose] yielded a Kd [1] of 0.3 mM, a Kd [2] of 7.9 mM and a Kd [3] of 3.2 mM. For the same molecule, the “Kd at different temperatures” value [4] was “Kd increased with temperature for all four molecules; the change was greatest for D279, and smallest for D274”, the “Kd at different temperatures” value [5] was “Kd increased with temperature for all four molecules” and the Kd [6] was 9.4 mM. The “Kd at different temperatures” value [7] was “Kd increased with temperature for all four molecules; the change was greatest for D279” and the “Kd at different temperatures” value [8] was “Kd increased with temperature for all four molecules”.
